Values after ≈ are worked out from the molar mass of the structure shown. “Also recorded” adds a separate entry of the source. Where two headings read alike, the source gives them in different places.
What was measured:
[1] = Cytotoxicity on Vero cell (MTT, Cell Proliferation Kit I); assay type: cell-based, African Green-monkey; conditions: African green monkey, Vero cells, highest concentration tested 200 μM
Description: (§1) Cytotoxicity of the antibacterial compounds on cultured Vero cell was measured by using the Cell Proliferation Kit I (MTT) (Roche, Indianapolis, USA) according to the manufacturer's protocol. Addition of DMSO (1%) in the medium produced a slight cytotoxicity on Vero cell, which could easily be corrected for. Each assay was performed in quadruplicate and repeated three times. The results were converted to percentage of the control (cells only treated with 1% DMSO) and CC50 (concentrations that produce a 50% cytotoxicity effect on Vero cell) was calculated by the Origin v7.0 software (OriginLab, Northampton, USA). Hemolytic activities of the compounds were determined by using healthy human erythrocytes. The erythrocytes were washed three times in sterile saline and resuspended to 5% prior to the assay. […] Cells without compound treatment and cells with 1% Triton-100 treatment were used as 0% and 100% hemolysis controls, respectively. The cell suspensions were incubated for 1 hour at 37°C and centrifuged at 1000×g for 10 min. Volumes of 100 μl supernatants were transferred to another sterile plate and hemoglobin release from the cells was determined at 570 nm. […] The hemolysis assays were repeated twice.

[2] = system: S. epidermidis ATCC12228; experiment: MIC assay (broth dilution in tubes, CLSI); assay type: cell-based, Staphylococcus epidermidis; conditions: Staphylococcus epidermidis
Excerpt: (§2) Staphylococcus epidermidis ATCC12228 and RP62A strains were purchased from the American Type Culture Collection (ATCC, Manassas, USA). Staphylococcus aureus ATCC29213, Escherichia coli ATCC25922 and Pseudomonas aeruginosa ATCC27853 were kindly provided by Dr. Bijie Hu at Zhongshan Hospital (Shanghai, China). S. epidermidis strains se527, se886, se847, seG203, Streptococcus pyogenes strain 144, and Streptococcus mutans strain 128 were all clinical isolates from Zhongshan Hospital and Huashan Hospital (Shanghai, China). If not stated otherwise, S. epidermidis and S. aureus strains were grown at 37°C in tryptic soy broth (TSB, Oxoid) containing 0.25% glucose, E. coli and P. aeruginosa strains were grown at 37°C in Luria-Bertani (LB, Oxoid).
(§3) MIC assays for the antibacterial activities of the compounds were performed according to the broth micro-dilution (in tubes) method of the Clinical and Laboratory Standards Institute (CLSI) of America. The Minimal Bactericidal Concentration (MBC) was obtained by subculturing 100 μl from each negative (no visible bacterial growth) tube from the MIC assay, onto substance-free Mueller-Hinton agar plates. The plates were incubated at 37°C for 24 hours, and the MBC was defined as the lowest concentration of substance which produced subcultures growing no more than five colonies on each plate.

[3] = system: SrrB'; experiment: Inhibition of SrrB' autophosphorylation (Kinase-Glo); assay type: biochemical, S. epidermidis; conditions: compound 50 μM, 4 μg protein, 3 μM ATP
[4] = system: S. epidermidis RP62A; experiment: MIC assay (broth dilution in tubes, CLSI); assay type: cell-based; conditions: Staphylococcus epidermidis
Excerpt: as §2, §3

[5] = system: S. aureus ATCC29213; experiment: MIC assay (broth dilution in tubes, CLSI); assay type: cell-based, Staphylococcus aureus; conditions: for MIC: Staphylococcus aureus, S. aureus ATCC29213, read-out: Minimal inhibitory concentration (MIC)
Excerpt: as §2, §3

[6] = system: S. pyogenes 144; experiment: MIC assay (broth dilution in tubes, CLSI); assay type: cell-based, Streptococcus pyogenes; conditions: for MIC: Streptococcus pyogenes, S. pyogenes 144, read-out: Minimal inhibitory concentration (MIC)
Excerpt: as §2, §3

[7] = system: S. epidermidis ATCC12228; experiment: Minimal bactericidal concentration (MBC) assay; assay type: cell-based; conditions: Staphylococcus epidermidis
Description: as §3

[8] = system: S. epidermidis RP62A; experiment: Minimal bactericidal concentration (MBC) assay; assay type: cell-based; conditions: Staphylococcus epidermidis
Description: as §3

[9] = Erythrocyte hemolysis assay; assay type: cell-based, human; conditions: human, erythrocytes (5% suspension), 1 hour, 37°C;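 note: compounds tested at their MIC and at 4× MIC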
Description: as §1

[10] = target: T1, YycG' protein (Staphylococcus epidermidis, UniProt Q8CU87); experiment: Inhibition of YycG' ATPase activity / autophosphorylation (Kinase-Glo Luminescent Kinase Assay); assay type: biochemical; conditions: 3 μM ATP; for IC50: 4 μg YycG' protein, read-out: IC50 for YycG'; for inhibition at 50 µM: compound 50 μM, 4 μg protein, read-out: Inhibition of YycG' phosphorylation (decrease of ATPase activity)
T1 construct: of YycG (370aa to 610aa) was amplified by PCR; His-tag (pET28a) (N); made in house; host or cells: E. coli BL21 (pET28a, pETYycG')
Description: The inhibitory activities of the compounds for the ATPase activity of the YycG' protein was measured using the Kinase-Glo™ Luminescent Kinase Assay (Promega, Madison, USA). Briefly, 4 μg YycG' protein was pre-incubated with a series of dilution of compounds in the reaction buffer (40 mM Tris [pH 7.5], 20 mM MgCl2, and 0.1 mg/ml BSA), at 25°C for 30 min. Then 3 μM ATP was added for another incubation of 30 min at 25°C, and Kinase-Glo™ Reagent was added to detect the rest amount of ATP, as recorded from luminescence measurements (RLU). In parallel, theYycG' protein with no addition of compounds was used as the control. The rate of inhibiting protein phosphorylation (Rp) by the compounds was calculated from equation 1:
Rp=RLU(YycG^′+compound+ATP+Reagent)−RLU(YycG^′+ATP+Reagent)/RLU(ATP+Reagent)−RLU(YycG^′+ATP+Reagent)×100% (1) MathType@MTEF@5@5@+=feaafiart1ev1aaatCvAUfKttLearuWrP9MDH5MBPbIqV92AaeXatLxBI9gBaebbnrfifHhDYfgasaacH8akY=wiFfYdH8Gipec8Eeeu0xXdbba9frFj0=OqFfea0dXdd9vqai=hGuQ8kuc9pgc9s8qqaq=dirpe0xb9q8qiLsFr0=vr0=vr0dc8meaabaqaciaacaGaaeqabaqabeGadaaakeaacqqGsbGudaWgaaWcbaGaeeiCaahabeaakiabg2da9maalaaabaGaeeOuaiLaeeitaWKaeeyvauLaeiikaGIaeeywaKLaeeyEaKNaee4yamMafe4raCKbauaacqGHRaWkcqqGJbWycqqGVbWBcqqGTbqBcqqGWbaCcqqGVbWBcqqG1bqDcqqGUbGBcqqGKbazcqGHRaWkcqqGbbqqcqqGubavcqqGqbaucqGHRaWkcqqGsbGucqqGLbqzcqqGHbqycqqGNbWzcqqGLbqzcqqGUbGBcqqG0baDcqGGPaqkcqGHsislcqqGsbGucqqGmbatcqqGvbqvcqGGOaakcqqGzbqwcqqG5bqEcqqGJbWycuqGhbWrgaqbaiabgUcaRiabbgeabjabbsfaujabbcfaqjabgUcaRiabbkfasjabbwgaLjabbggaHjabbEgaNjabbwgaLjabb6gaUjabbsha0jabcMcaPaqaaiabbkfasjabbYeamjabbwfavjabcIcaOiabbgeabjabbsfaujabbcfaqjabgUcaRiabbkfasjabbwgaLjabbggaHjabbEgaNjabbwgaLjabb6gaUjabbsha0jabcMcaPiabgkHiTiabbkfasjabbYeamjabbwfavjabcIcaOiabbMfazjabbMha5jabbogaJjqbbEeahzaafaGaey4kaSIaeeyqaeKaeeivaqLaeeiuaaLaey4kaSIaeeOuaiLaeeyzauMaeeyyaeMaee4zaCMaeeyzauMaeeOBa4MaeeiDaqNaeiykaKcaaiabgEna0kabigdaXiabicdaWiabicdaWiabcwcaLiaaxMaacaWLjaWaaeWaaeaacqaIXaqmaiaawIcacaGLPaaaaaa@A46C@
IC50 (the concentration of inhibition of 50% YycG' protein autophosphorylation) was obtained by using the Origin v7.0 software (OriginLab, Northampton, USA).

[11] = system: S. mutans 128; experiment: MIC assay (broth dilution in tubes, CLSI); assay type: cell-based, Streptococcus mutans; conditions: for MIC: Streptococcus mutans, S. mutans 128, read-out: Minimal inhibitory concentration (MIC)
Excerpt: as §2, §3

[12] = system: S. epidermidis RP62A mature biofilm cells; experiment: Killing biofilm cells of S. epidermidis (CFU count); assay type: cell-based, Staphylococcus epidermidis
Description: An overnight culture of S. epidermidis strain RP62A was diluted 1:100 in TSB containing 0.25% glucose, then 1 ml bacterial suspension was inoculated into the wells of sterile 12-well polystyrene microtiter plates (Falcon) incubated at 37°C for 24 h. The plates with mature biofilm were washed gently four times with sterile PBS before adding fresh TSB containing the various compounds at their MBC values, and incubated at 37°C for 24 h. The plates were washed again four times with sterile PBS, then the biofilm cells were scraped from the plate and resuspended in 1 ml PBS, and violently vortexed to disintegrate clumps of cells. Next, the suspension was diluted gradually with sterile PBS and subcultured onto substance-free Mueller-Hinton agar plates, incubated at 37°C for 24 h, and the colonies were counted. The fresh medium containing vancomycin at the MBC value and substance-free fresh medium served as the controls. The experiment was repeated three times.

[13] = ATCC12228, Table 2, as tested on S. epidermidis ATCC 12228, read-out: MICs
[14] = S. epidermidis ATCC12228 (non-biofilm-forming strain), read-out: Minimal inhibitory concentration (MIC)
[15] = S. epidermidis RP62A (biofilm-forming strain), read-out: Minimal inhibitory concentration (MIC)
[16] = S. epidermidis RP62A, read-out: Minimal bactericidal concentration (MBC)
[17] = at 4 × MIC (number in parenthesis)
[18] = at MIC for S. epidermidis ATCC12228

T1 sequence (Q8CU87 370-610): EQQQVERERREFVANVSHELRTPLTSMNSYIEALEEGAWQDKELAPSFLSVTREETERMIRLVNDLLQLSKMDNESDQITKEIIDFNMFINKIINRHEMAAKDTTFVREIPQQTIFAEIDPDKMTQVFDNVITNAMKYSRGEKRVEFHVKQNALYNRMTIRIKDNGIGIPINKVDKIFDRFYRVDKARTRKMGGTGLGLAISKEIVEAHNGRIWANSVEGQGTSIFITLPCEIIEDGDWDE

Row | Compound | CC50 [1] [µM] | MIC [2, 13] [µM] | MIC [2, 14] [µM] | Inhibition of SrrB' phosphorylation [3] [%] | MIC [4, 15] [µM] | Inhibitory effect against S. aureus [5] | MIC [5] [µM] | Inhibitory effect against Streptococcus pyogenes [6] | MIC [6] [µM] | MBC [7] [µM] | MBC [8, 16] [µM] | hemolysis at 1 h [9, 17] [%] | hemolysis at 1 h [9, 18] [%] | IC50 [10] [µM] | inhibition at 50 µM [10] [%] | MIC [11] [µM] | also measured
1 | O=C(NNC(=O)c1c(Br)c(Br)c(Br)c(Br)c1C(O)O)c1cc(Cl)ccc1O [Compound 1] | > 200 | 50 | 50 | 3 | 50 | inhibited the growth | 50 (≈ 32.6 µg/mL) | inhibited the growth | 200 (≈ 130 µg/mL) | 200 (≈ 130 µg/mL) | 200 | < 0.1 | < 0.1 | 48 | 52 | > 200 | –
2 | Cc1ccc(C(O)O)cc1-c1ccc(/C=N/NC(=O)c2cc3c(ccc4ccccc43)o2)o1 [Compound 4] | > 200 | 12.5 | 12.5 | 3 | 12.5 | – | > 200 | only active against S. pyogenes | 50 (≈ 22 µg/mL) | 50 (≈ 22 µg/mL) | 100 | 0.4 | 0.1 | 13.5 | 76 | > 200 | –
3 | CCOC(=O)C1=C(c2ccccc2)N=c2s/c(=C/c3ccc(-c4cccc(C(O)O)c4)o3)c(=O)n2C1c1ccc2c(c1)OCO2 (stereo not shown) [Compound 5] | > 200 | 6.25 | 6.25 | – | 6.25 | effective | 6.25 (≈ 3.89 µg/mL) | effective | 1.56 (≈ 0.971 µg/mL) | 25 (≈ 15.6 µg/mL) | 25 | 0.3 | 0.1 | 14 | 73 | 6.25 (≈ 3.89 µg/mL) | Reduction of the CFU of the biofilm cells ([12]; 24-hour-old biofilm, at MBC value, relative to untreated control): more than 100 fold; Inhibitory effect against Streptococcus mutans [11]: effective
4 | CN(C)[C@@H]1C(O)=C(C(N)=O)C(=O)[C@@]2(O)C(O)=C3C(=O)c4c(O)cccc4[C@@](C)(O)[C@H]3C[C@@H]12 [Tet, tetracycline, reference compound] | – | – | – | – | – | – | – | – | – | – | – | – | – | – | – | – | MIC ([2]; ATCC12228, conventional antibiotics used in the hemolysis assay, strain not printed at the place, read-out: MIC): 0.25 µg/mL
5 | CN[C@H](CC(C)C)C(=O)N[C@H]1C(=O)N[C@@H](CC(N)=O)C(=O)N[C@H]2C(=O)N[C@H]3C(=O)N[C@H](C(=O)N[C@H](C(=O)O)c4cc(O)cc(O)c4-c4cc3ccc4O)[C@H](O)c3ccc(c(Cl)c3)Oc3cc2cc(c3O[C@@H]2O[C@H](CO)[C@@H](O)[C@H](O)[C@H]2O[C@H]2C[C@](C)(N)[C@H](O)[C@H](C)O2)Oc2ccc(cc2Cl)[C@H]1O [Vancomycin, reference compound] | – | – | – | – | – | – | – | – | – | – | – | – | – | – | – | – | Killing of biofilm cells ([12]; concentration increased up to 128 μg/ml): no increased killing; also recorded: almost without effect; MIC ([4]; RP62A): 1 µg/mL; MBC ([8]; RP62A): 4 µg/mL

Source: PMC1660542, “Structure-based discovery of inhibitors of the YycG histidine kinase: New chemical leads to combat Staphylococcus epidermidis infections” (BMC Microbiology, 2006)
